Experimental data published in article PMC6018403 (Frontiers in Pharmacology, 2018).
Read-outs that look alike come from different tables or passages of the source.

Experiment: Multi-component pharmacokinetic study of GQD, GQD-GC and single herb extracts in rats (plasma, LC/MS/MS)
Type: in vivo, Sprague-Dawley rats
Settings: for AUC(0-t) / Cmax / half-life / Tmax: male, Sprague-Dawley, rat; for plasma concentrations, effect of GQD compared with Gan-Cao: rats, oral
Experimental: Male Sprague-Dawley rats (220–250 g) were used for PK study, and the details were described in Supplemental Data. All procedures were in accordance with the National Institutes of Health Guide for the Care and Use of Laboratory Animals.
For PK study of GQD and its component herbs, rats were randomly divided into six groups (n = 10 for each group) before oral administration.
All blood samples were immediately centrifuged at 6,000 rpm (4°C) for 20 min to obtain plasma. The plasma samples were stored at −80°C.
A Finnigan TSQ Quantum triple quadrupole mass spectrometer was connected to a Surveyor HPLC via ESI interface (ThermoFisher). High purity nitrogen was used as the sheath and auxiliary gas; Ultra-high purity argon was used as the collision gas (1.5 mTorr). Q1 and Q3 quadrupoles were set at unit resolution. […] The column temperature was 40°C. The mobile phase consisted of acetonitrile containing 2% (v/v) methanol (A) and water containing 0.1% (v/v) formic acid (B). […] An aliquot of 5 μL was injected for analysis. UV spectra were obtained by scanning from 200 to 400 nm. The mass spectrometer was operated in the (+)-ESI mode. The optimized parameters were as follows: sheath gas (N2), 50 arb; auxiliary gas (N2), 5 arb; spray voltage, 4.0 kV; capillary temperature, 330°C; collision energy, see Table S1. Analytes were detected in the selected reaction monitoring (SRM) mode. Data were processed by Xcalibur 2.0.7 software (ThermoFisher).
LC/MS/MS calibration and quantitation data were processed with Xcalibur 2.0.7 software (ThermoFisher). The maximal plasma concentrations (Cmax) and their time of occurrence (Tmax) were obtained directly from the measured data. Other pharmacokinetic parameters were calculated by non-compartment or compartment models using WinNonlin® software (v6.1, Pharsight). Unless otherwise stated, results were expressed as the mean ± SD. Statistical significance in differences of the means was determined by Student's t–test, with a significance level of P < 0.05.
Herbal materials and extracts.
The four component herbs, Puerariae Lobatae Radix (Ge-Gen, GG), Scutellariae Radix (Huang-Qin, HQ), Coptidis Rhizoma (Huang-Lian, HL), and Glycyrrhizae Radix et Rhizoma Praeparata cum Melle (Gan-Cao, GC) were purchased from Tianheng Pharmacy. GQD was prepared by decocting the four component herbs […]
pre-extraction of Ge-Gen using 200 mL of water for 0.5 h. The decoctions were combined, filtered, and concentrated in vacuum at 50 °C. GQD-GC was prepared using the same procedure, except that Gan-Cao was removed from the formula. Final concentration of the GQD-GC extract was equivalent to 1.0 g of the crude drugs per mL. For single herb extracts, the herbs were decocted in 8-fold volume of water for […]
Final concentrations of the extracts were 1.0 g/mL for Ge-Gen, and 0.5 g/mL for Huang-Qin, Huang-Lian and […]
For pharmacokinetic study, Male Sprague-Dawley rats (220-250 g) were obtained from the Laboratory Animal Center of Peking University Health Science Center. The […]
The rats had free access to tap water and soy-free custom diet (Ke’ao Xieli Co.). All procedures were in accordance with the National Institutes of Health Guide for the Care and Use of Laboratory Animals […]
Experimental details for the PK study
1. Preparation of internal standard solution, calibration standard solutions, and quality control solutions […]
internal standard solution. Reference standard compounds were dissolved in the internal standard solution to prepare individual stock solutions (1.0 mg/mL). These […]
each compound. The standard solution was then serially diluted to obtain calibration […]
Quality control stock solutions were prepared at three concentration levels as high QC (HQC), middle QC (MQC), and low QC (LQC), based on linear ranges of the analytes.
2.1. Sample preparation for pharmacokinetic study
The calibration standard and quality control solutions for pharmacokinetic study were […]

[1] = plasma, po, 18.9 g/kg, GQD group: rats, oral GQD extract 18.9 g/kg, plasma, read-out: AUClast
[2] = GQD group: rats, oral GQD extract 18.9 g/kg, plasma, read-out: Cmax
[3] = GQD group: rats, oral GQD extract 18.9 g/kg, plasma, read-out: T1/2 (converted)
[4] = GQD group: rats, oral GQD extract 18.9 g/kg, plasma, read-out: Tmax

## O=C(/C=C/c1ccc(O[C@@H]2O[C@H](CO)[C@@H](O)[C@H](O)[C@H]2O)cc1)c1ccc(O)cc1O [Compound 27, isoliquiritin]
In vivo, po, 2.36 g/kg, GC (Gan-Cao) group: rats, oral extract 2.36 g/kg, plasma, read-out: AUClast
  AUC(0-t): 8.46 ± 2.99 ng·h/mL
In vivo, po, 18.9 g/kg, GQD group: rats, oral GQD extract 18.9 g/kg, plasma, read-out: AUClast
  AUC(0-t): 11.9 ± 2.4 ng·h/mL
In vivo, GC (Gan-Cao) group: rats, oral extract 2.36 g/kg, plasma, read-out: Cmax
  Cmax: 2.17 ± 0.98 ng/mL
In vivo, GC (Gan-Cao) group: rats, oral extract 2.36 g/kg, plasma, read-out: T1/2 (converted)
  half-life: 0.91 ± 0.08 h
In vivo, GC (Gan-Cao) group: rats, oral extract 2.36 g/kg, plasma, read-out: Tmax
  Tmax: 0.4 ± 1.23 h
In vivo, GQD group: rats, oral GQD extract 18.9 g/kg, plasma, read-out: Cmax
  Cmax: 2.59 ± 2.43 ng/mL
In vivo, GQD group: rats, oral GQD extract 18.9 g/kg, plasma, read-out: T1/2 (converted)
  half-life: 1.62 ± 0.33 h
In vivo, GQD group: rats, oral GQD extract 18.9 g/kg, plasma, read-out: Tmax
  Tmax: 0.49 ± 1.01 h
  plasma concentrations, effect of GQD compared with Gan-Cao: improved

## O=C(/C=C/c1ccc(O)cc1)c1ccc(O)cc1O [Compound 28, isoliquiritigenin]
plasma, po, 2.36 g/kg, GC (Gan-Cao) group: rats, oral extract 2.36 g/kg, plasma, read-out: AUClast
  AUC(0-t): 1.28 ± 0.03 ng·h/mL
[1]
  AUC(0-t): 39.2 ± 8.9 ng·h/mL
GC (Gan-Cao) group: rats, oral extract 2.36 g/kg, plasma, read-out: Cmax
  Cmax: 1.16 ± 0.52 ng/mL
GC (Gan-Cao) group: rats, oral extract 2.36 g/kg, plasma, read-out: T1/2 (converted)
  half-life: 0.28 ± 0.08 h
GC (Gan-Cao) group: rats, oral extract 2.36 g/kg, plasma, read-out: Tmax
  Tmax: 0.41 ± 0.47 h
[2]
  Cmax: 2.81 ± 0.87 ng/mL
[3]
  half-life: 3.55 ± 0.08 h
[4]
  Tmax: 5.33 ± 0.89 h

## O=C1C[C@@H](c2ccc(O)cc2)Oc2cc(O)ccc21 [Compound 29, liquiritigenin]
In vivo, po, 2.36 g/kg
  Cmax: 22.63 ± 0.22 ng/mL
  Tmax: 1 ± 2.34 h
  half-life: 9.84 ± 3.52 h
In vivo, po, 2.36 g/kg, AUClast
  AUC(0-t): 75.4 ± 81.1 ng·h/mL
In vivo, po, 18.9 g/kg
  Cmax: 27.4 ± 9.97 ng/mL
  Tmax: 1 ± 0.93 h
  half-life: 11.2 ± 7.69 h
In vivo, po, 18.9 g/kg, AUClast
  AUC(0-t): 153 ± 9.34 ng·h/mL

## COc1c(CC=C(C)C)c(O)cc2oc(=O)c(-c3ccc(O)cc3O)cc12 [Compound 30, glycycoumarin]
Gan-Cao group: rats, oral 2.36 g/kg, plasma
  AUC: not detected
[1]
  AUC(0-t): 37.9 ± 29.9 ng·h/mL
plasma, po, 18.9 g/kg, GQD group: rats, oral GQD 18.9 g/kg (1.5-fold of clinical dosage), plasma, read-out: AUClast
  AUC(0-t): 37.9 ± 29.9 ng·h/mL
[2]
  Cmax: 7.47 ± 8.1 ng/mL
[3]
  half-life: 11.3 ± 3.38 h
[4]
  Tmax: 2 ± 1.24 h
  plasma concentrations, effect of GQD compared with Gan-Cao: improved
